From US20180196033A1, “CELL TRACKING REAGENTS AND THEIR METHODS OF USE” (LIFE TECHNOLOGIES CORPORATION, priority 2015, published 2018)
Several values for one entry are separate records, joined by “and”; a condition that tells them apart may be missing. Equal entries are not always repeated.

Tested on: Human peripheral blood mononuclear cells (PBMCs)
Experiment: Generational tracking of cell proliferation by dye dilution, flow cytometry
Type: cell-based
Conditions: PBMCs stained with 10 mM stock at 1 μL per mL of cells, 20 min; stimulated with Interleukin-2 and CD3/CD28 DYNABEADS; 355 nm laser, 450/50 bandpass emission filter
Procedure: 20 mL whole blood were added to 20 mL DPBS and mixed well. 15 mL FICOLL-PAQUE® PLUS (GE Healthcare) were added to each of two 50 mL centrifuge tubes. 20 mL of the diluted whole blood was carefully layered on top. The tube containing the whole blood was centrifuged for 30 min at 400×g and the peripheral blood mononuclear cell (PBMC) layer was carefully removed. The cells were resuspended in 25 mL DPBS in a 50 mL centrifuge tube and centrifuged for 5 min at 400×g. The supernatant was decanted and the cells were resuspended in 10 mL DPBS. Cells were counted on a COUNTESS Automated Cell Counter (Thermo Fisher Scientific) with the concentration adjusted to 1×10^6 cells/mL in DPBS.
20 μL anhydrous DMSO was added to a vial of dry Compound 1 (64 μg) at room temperature. 1 mL of unstained cells was reserved as a control. Cells were labeled with 1 μL of 10 mM Compound 1, per milliliter of cell suspension. The tubes were immediately vortexed for 30 sec and the cells were incubated for 20 min at room temperature, protected from light. […]
2 mL of each sample were removed by first mixing sample with a pipet then transferring them to their own tubes. […] Cells were counted on a COUNTESS Automated Cell Counter with the concentration adjusted to 1×10^6 cells/mL in DPBS. […]

COc1ccc2cc(C(=O)ON3C(=O)CCC3=O)c(=O)oc2c1 [Compound 1]
time over which cell proliferation was followed (discrete peaks of successive generations of live, CD4 positive cells): 7 days and 6 days
